Measured values: patent publication US20260217701A1, “SELECTIVE BET INHIBITORS AND USES THEREOF” (Tay Therapeutics Limited, priority 2022, published 2026)

Experiments:
Assay type in all cases: in vivo, C57BI/6J mice
[1] = test system: idiopathic pulmonary fibrosis (bleomycin); test: Bleomycin IPF model: functional lung volume by micro-CT; design: Functional Lung Volume, Mean: unit not given here; conditions: Day 21
Experimental: Animals were acclimated for two weeks prior to study initiation, and were randomized into the experimental groups outlined in Table 32. Intratracheal (IT) administration of Bleo or PBS control was conducted at the start of the study (Day 0). […] Following administration of Bleo, animals (n=10/group) were included in the study if they met the following guidelines on Day 7: […] Micro-CT imaging was also performed on Day 7 to determine relative fibrosis and on Day 21. […] Images were acquired with a respiratory gated technique with the following parameters: X-ray tube voltage: 90 KV; X-ray tube current: 88 μA; total scan time: 4 minutes. The system was calibrated monthly with standard phantoms for noise, uniformity, low contrast, and resolution to ensure consistency.

hydroxyproline = test: Bleomycin IPF model: hydroxyproline content in lung lysates; design: Hydroxyproline Levels, Mean: unit not given here; conditions: Bleo + Pirfenidone (300 mg/kg) OG QOD from D7
Experimental: (§1) Male C57BI/6J mice, aged 12 weeks with an approximate weight of 25-30 g were obtained from Jackson Laboratories (Bar Harbor, ME). Animals were acclimated for two weeks prior to study initiation, and were randomized into the experimental groups outlined in Table 32.
(§2) Intratracheal (IT) administration of Bleo or PBS control was conducted at the start of the study (Day 0). […] Animals were weighed on Day 0, and indexed boluses of PBS control (Group 1) or Bleo (Groups 2-6) were delivered by IT administration.
(§3) Following administration of Bleo, animals (n=10/group) were included in the study if they met the following guidelines on Day 7: (1) a predictable 5% loss in body weight, and (2) the presence of fibrotic pulmonary lesions, detected by micro-CT imaging. 10 animals from Group 1 additionally proceeded as controls. Animals that continued in the study on Day 7 received an oral gavage (OG) administration of PBS, Compound A (1 mg/kg, 3 mg/kg, 10 mg/kg), or Pirfenidone (300 mg/kg), as outlined in Table 31 in 25 μL boluses every other day (QOD), starting on Day 7. Compound A was formulated in 5% (v/v) DMSO/15% (v/v) PEG 400/80% (v/v) E-TPGS in purified water.
Animals were euthanized on Day 21 following Micro-CT imaging, and the right lung was collected for biochemical analysis, and the left lung was inflation-fixed for morphological assessments. A resection of the right lung was weighed and homogenized to determine total hydroxyproline levels by colorimetric assay, and the remaining lung lysate was saved for future analyses.

[2] = test system: idiopathic pulmonary fibrosis (bleomycin); test: Bleomycin IPF model: oxygen saturation (pulse oximetry); conditions: Bleo + Pirfenidone (300 mg/kg) OG QOD from D7
Experimental: as §1, §2, §3
Body weights were obtained at Day 0 at the start of the study, and again at Day 7 to determine if an animal continued in the study. Body weight was measured daily from Day 7 until Day 21, and oxygen saturation was measured by a pulse oximetry (MouseOx) system QOD from Day 7 until study completion on Day 21, and results were plotted and analyzed by Kaplan-Meier plots.

[3] = test system: idiopathic pulmonary fibrosis (bleomycin); test: Bleomycin IPF model: lung histology, Masson's Trichrome with Ashcroft scoring
Experimental: Animals were acclimated for two weeks prior to study initiation, and were randomized into the experimental groups outlined in Table 32. Intratracheal (IT) administration of Bleo or PBS control was conducted at the start of the study (Day 0). […] Following administration of Bleo, animals (n=10/group) were included in the study if they met the following guidelines on Day 7: […] A resection of the right lung was weighed and homogenized to determine total hydroxyproline levels by colorimetric assay, and the remaining lung lysate was saved for future analyses. For the morphological assessments, the left lung was inflation-fixed at 25 cm of water pressure with 4% paraformaldehyde in PBS for 1 minute, processed, and then sectioned. Morphological analysis of the lung was conducted using H&E-stained slides. Additional histologic stains for morphological analyses included Masson's Trichrome staining with Ashcroft scoring to determine severity of fibrosis.

[4] = Bleomycin IPF model: body weight and mortality; design: Mean Body Weight Change: unit not given here; conditions: for Mean Body Weight Change: Bleo + Pirfenidone (300 mg/kg) OG QOD from D7
Experimental: as §1, §2
as §3, with “water. […]” for “water.”

[5] = Bleo + Pirfenidone (300 mg/kg) OG QOD from D7

SMILES: Cc1ccc(=O)n(-c2ccccc2)c1 [Pirfenidone, reference compound]
- Functional Lung Volume, Mean [1, 5]: 445.7025
- Functional lung volume relative to Group 2 ([1]; Group 6, Pirfenidone 300 mg/kg): significantly increased
- Hydroxyproline Levels, Mean (hydroxyproline): 0.055
- Mean Oxygen Saturation ([2]; Day 7): 81.08
- Mean Oxygen Saturation ([2]; Day 9): 84.55
- Mean Oxygen Saturation ([2]; Day 11): 83.32
- Mean Oxygen Saturation ([2]; Day 13): 84.28
- Mean Oxygen Saturation ([2]; Day 15): 87.03
- Mean Oxygen Saturation ([2]; Day 17): 87.08
- Mean Oxygen Saturation ([2]; Day 19): 89.13
- Mean Oxygen Saturation ([2]; Day 21): 89.18
- Ashcroft Scoring, Max [3, 5]: 6
- Ashcroft Scoring, Mean [3, 5]: 5.125
- Ashcroft Scoring, Min [3, 5]: 4
- Ashcroft scores relative to IPF control group ([3]; Day 21, Group 6, 300 mg/kg): significantly reduced Ashcroft scores
- Fibrosis in lung tissue (Masson's Trichrome) compared to Group 2 (Bleo+Saline) ([3]; Group 5 (Compound A 10) and Group 6 (Pirfenidone)): qualitatively diminished
- Mean Body Weight Change ([4]; Day 1): 2.308
- Mean Body Weight Change ([4]; Day 2): −0.484
- Mean Body Weight Change ([4]; Day 3): 0.051
- Mean Body Weight Change ([4]; Day 4): 4.604
- Mean Body Weight Change ([4]; Day 5): −5.992
- Mean Body Weight Change ([4]; Day 6): −9.221
- Mean Body Weight Change ([4]; Day 7): −11.372
- Mean Body Weight Change ([4]; Day 8): −14.446
- Mean Body Weight Change ([4]; Day 9): −14.694
- Mean Body Weight Change ([4]; Day 10): −15.574
- Mean Body Weight Change ([4]; Day 11): −14.209
- Mean Body Weight Change ([4]; Day 12): −13.437
- Mean Body Weight Change ([4]; Day 13): −12.258
- Mean Body Weight Change ([4]; Day 14): −12.644
- Mean Body Weight Change ([4]; Day 15): −13.627
- Mean Body Weight Change ([4]; Day 16): −13.391
- Mean Body Weight Change ([4]; Day 17): −13.251
- Mean Body Weight Change ([4]; Day 18): −15.138
- Mean Body Weight Change ([4]; Day 19): −14.921
- Mean Body Weight Change ([4]; Day 20): −15.674
- Mean Body Weight Change ([4]; Day 21): −15.557
- Body weight compared with Bleo+Saline treated animals ([4]; Compound A (all doses tested), Pirfenidone (300 mg/kg)): No significant difference
